Assay results from patent US5030654A, “Glutaramide diuretic agents” (Pfizer Inc., priority 1986, dated 1991).
Read-outs that look alike come from different tables or passages of the source.

Tests used:
[1] = system: male mice (Charles River CDl); test: natriuresis in mice in vivo (saline loaded conscious mice); design: species or system mouse; conditions: i.v. via tail vein, urine collected for two hours
Experimental: The activity of the compounds as diuretic agents is determined by measuring their ability to increase urine output and sodium ion excretion in saline loaded conscious mice. In this test, male mice (Charles River CDl, 22-28 g) are acclimatised and starved overnight in metabowls. The mice are dosed intravenously via the tail vein, with the test compound dissolved in a volume of saline solution equivalent to 2.5% of body weight. Urine samples are collected each hour for two hours in pre-weighed tubes and analysed for electrolyte concentration. Urine volume and sodium ion concentration from the test animals are compared to a control group which received only saline.
(§1) The activity of the racemate and separated enantiomers of the cis-4-{1-[2-carboxy-3-(2-methoxyethoxy)propyl]-1-cyclopentanecarboxamido}- 1-cyclohexanecarboxylic acid was assessed by measuring their ability to inhibit the neutral endopeptidase E.C.3.4.24.11 in vitro or to induce natriuresis in mice in vivo following the procedures described herein.

[2] = molecular target: T1, neutral endopeptidase E.C.3.4.24.11 (Rattus norvegicus, UniProt P07861); test: inhibition of the neutral endopeptidase E.C.3.4.24.11 in vitro; format: biochemical
T1 construct: neutral endopeptidase preparation from rat kidney; from tissue; host or cells: rat kidney
T1 sequence (P07861 1-750): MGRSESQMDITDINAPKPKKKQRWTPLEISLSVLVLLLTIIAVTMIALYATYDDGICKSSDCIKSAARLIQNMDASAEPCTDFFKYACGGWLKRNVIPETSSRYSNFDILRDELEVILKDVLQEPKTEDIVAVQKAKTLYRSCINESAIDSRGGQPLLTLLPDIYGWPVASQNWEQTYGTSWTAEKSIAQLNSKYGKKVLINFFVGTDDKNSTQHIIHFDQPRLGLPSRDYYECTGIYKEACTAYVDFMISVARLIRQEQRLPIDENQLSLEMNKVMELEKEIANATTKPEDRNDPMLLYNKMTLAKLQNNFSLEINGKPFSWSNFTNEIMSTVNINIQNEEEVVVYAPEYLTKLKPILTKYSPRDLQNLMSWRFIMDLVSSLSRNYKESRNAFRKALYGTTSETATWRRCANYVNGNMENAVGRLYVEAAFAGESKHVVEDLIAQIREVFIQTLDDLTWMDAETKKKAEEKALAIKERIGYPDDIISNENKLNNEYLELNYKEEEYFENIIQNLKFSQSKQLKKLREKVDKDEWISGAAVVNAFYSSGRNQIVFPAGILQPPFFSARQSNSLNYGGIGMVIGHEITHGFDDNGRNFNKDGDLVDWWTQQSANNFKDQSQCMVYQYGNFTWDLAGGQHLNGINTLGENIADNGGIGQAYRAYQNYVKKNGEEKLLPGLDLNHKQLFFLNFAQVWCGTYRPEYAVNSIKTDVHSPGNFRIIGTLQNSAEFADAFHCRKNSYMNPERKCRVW
Experimental: Activity against neutral endopeptidase E.C.3.4.24.11 is assessed using a procedure based on the assay described by J. T. Gafford, R. A. Skidgel, E. G. Erdos and L. B. Hersh, Biochemistry, 1983, […], 3265-3271. The method involves determining the concentration of compound required to reduce by 50% the rate of release of radiolabelled hippuric acid from hippuryl-L-phenylalanyl-L-arginine by a neutral endopeptidase preparation from rat kidney.
as §1
The compounds were assessed for their ability to inhibit the neutral endopeptidase E.C.3.4.24.11 following the procedure described herein.

[3] = in vitro, neutral endopeptidase preparation from rat kidney, racemate and enantiomers (Example 445), read-out: IC50 against E.C.3.4.24.11
[4] = neutral endopeptidase E.C.3.4.24.11, rat kidney preparation (Example 454), read-out: IC50

| SMILES | IC50 [2, 3] [nM] | IC50 [2, 4] [nM] | Natriuresis in mouse (i.v.) [1] |
| --- | --- | --- | --- |
| COCCOC[C@@H](CC1(C(=O)N[C@H]2CC[C@@H](C(=O)O)CC2)CCCC1)C(=O)O [(-) R, cis-4-{1-[2-carboxy-3-(2-methoxyethoxy)propyl]-1-cyclopentanecarboxamido}-1-cyclohexanecarboxylic acid] | < 1000 | – | inactive at 3 mg/kg |
| COCCOCC(CC1(C(=O)N[C@H]2CC[C@@H](C(=O)O)CC2)CCCC1)C(=O)O (mixture of isomers) [(±) R,S, cis-4-{1-[2-carboxy-3-(2-methoxyethoxy)propyl]-1-cyclopentanecarboxamido}-1-cyclohexanecarboxylic acid] | 48 | – | active at 3 mg/kg |
| COCCC(CC1(C(=O)N[C@H]2CC[C@@H](C(=O)O)CC2)CCCC1)C(=O)O (relative stereo) [Example 217, 3-{1-[(cis-4-Carboxy-cyclohexyl)carbamoyl]cyclopentyl}-2-(2-methoxyethyl)propanoic acid] | – | 50 | – |
| CCCCC1CC(NC(=O)C2(C[C@@H](COCCOC)C(=O)O)CCCC2)CCC1C(=O)O (single isomer, unassigned; isomer a) [Example 449 isomer A, 3-[1-(c-4-Carboxy-c-3-butylcyclohexyl-r-1-carbamoyl)cyclopentyl]-2S-(2-methoxyethoxymethyl)propanoic acid] | – | 3.6 | – |
| COCCOC[C@H](CC1(C(=O)N[C@H]2CC[C@@H](C(=O)O)CC2)CCCC1)C(=O)O [(+) S, (S)-cis-4-{1-[2-Carboxy-3-(2-methoxyethoxy)propyl]-1-cyclopentanecarboxamido}-1-cyclohexanecarboxylic acid] | 39 | – | active at 1.5 mg/kg |

Now from value to molecule, other results behind:

| IC50 [2, 3] [nM] | IC50 [2, 4] [nM] | SMILES | Natriuresis in mouse (i.v.) [1] |
| --- | --- | --- | --- |
| – | 5.6 | CCCCC1CC(NC(=O)C2(C[C@@H](COCCOC)C(=O)O)CCCC2)CCC1C(=O)O (single isomer, unassigned) [Example 449 isomer B, 3-[1-(c-4-Carboxy-c-3-butylcyclohexyl-r-1-carbamoyl)cyclopentyl]-2S-(2-methoxyethoxymethyl)propanoic acid] | – |
| – | 7.9 | CCCCC1CC(NC(=O)C2(C[C@@H](COCCOC)C(=O)O)CCCC2)CCC1C(=O)O (stereo partly drawn) [Example 451, 3-[1-(c-4-Carboxy-t-3-butyl-r-1-carbamoyl)cyclopentyl]-2S-(2-methoxyethoxymethyl)propanoic acid] | – |
| – | 8 | CCCCC1CC(NC(=O)C2(CC(CCOC)C(=O)O)CCCC2)CCC1C(=O)O (centres unmarked) [Example 453, 3-[1-(c-4-Carboxy-c-3-butylcyclohexyl-r-1-carbamoyl)cyclopentyl]-2-(2-methoxyethyl)propanoic acid] | – |
